Assay results from US20100016262A1, “Compositions and methods for reducing hepatotoxicity associated with drug administration and treating non-alcoholic fatty liver disease, non-alcoholic steatohepatitis and associated cirrhosis” (YALE UNIVERSITY, priority 2007, published 2010).
Entries after “also recorded” stand apart in the source; their conditions may differ.

Assays:
wild-type mice = test: Acetaminophen (APAP) induced hepatotoxicity in mice (500 mg/kg ip); format: in vivo, mouse
Description: • Animals. C57BL/6 mice were purchased from commercial sources. NALP3 −/−, IL-18 −/− ASC −/−, IPAF −/− and TLR9−/− mice were backcrossed nine generations onto the C57BL/6 background. Caspase 1 −/− mice were backcrossed 5-6 generations onto the C57BL/6 background. These mice have been described previously(39, 40). IL-1β was neutralized in by using the anti-IL-1β antibody from clone B 122 (a gift of R. Schreiber, Washington University) at a dose of 0.2 mg/mouse iv twice a day for a total of 48 hours after giving APAP. Control mice received Armenian hamster isotype control antibody. For survival experiments animals were euthanized when they became moribund using criteria of lack of response to stimuli or lack of righting reflex. Animal protocols were approved by the Yale University animal care and use committee. [include references for IPAF−/− (M. Lara-Tejero et al. JEM 2006) and IL-18−/−. Need to add TLR9−/− and TLR3−/−] • Acetaminophen induced hepatotoxicity. APAP (Sigma, MO) solution was made fresh for each experiment in PBS at 20 mg/ml and heated in a water bath to 55° C. to dissolve. APAP was dosed at 500 mg/kg and injected I.P after 15 hrs of starvation. Animals were euthanized by ketamine/xylazine injection at 12 hours for collection of serum, isolation of liver lymphocytes or collection of liver tissue for histology, or they were observed every four hours for 72 hours until they reached criteria for euthanasia (lack of response to stimuli or lack of righting reflex). • Aspirin/clopidogrel/SC-560. Aspirin (Sigma, MO) was made fresh for each experiment. For dosing prior to APAP it was dissolved in single deionized water at 60 mg/l and heated to 42° C. with rapid stirring to dissolve, then rapidly placed in an ice water bath to cool. Aspirin in water was given to the mice 60-72 hours prior to APAP injection. Assuming water consumption of 3-5 ml per day this dose would be equivalent to a 300-500 mg dose in an 80 kg adult human. For co-administration of APAP and aspirin, aspirin was gavaged at a dose of 6 mg/kg in a volume of 100 ul of water immediately after ip injection of APAP. Clopidogrel (Gilead Pharmaceuticals, CA.) was dissolved in PBS at 6 mg/ml and administered by gavage of 100 ul, 30 mg/kg, every 24 hours beginning 48 hours prior and ending 24 hours after APAP injection. Cox-1 inhibitor (SC-560). SC-560 (Cayman chemical, MI) was dissolved at 50 mg/ml in DMSO and further dissolved in PBS in order to gavage a dose of 5 mg/kg in 100 ul. It was administered twice per day beginning 60 hours prior to Tylenol and continued for 48 hours after APAP injection as previously established(41). • Uric Acid Peritonitis. Peritonitis was induced with uric acid crystals as previously described by injecting 3 mg of MSU intraperitoneally per mouse(27). Three hours after injection peritoneal lavage was performed on mice euthanized by isoflurane inhalation. Neutrophil infiltration was evaluated by flow cytometry. The percent of Gr-1 (BD Pharmingen, CA) positive cells was multiplied by the total cell counts. • Liver sinusoidal endothelial cell (LSEC) isolation. After in-situ pronase digestion the non-parenchymal cell suspension is centrifuged for 5 min at 100 g to remove most of the parenchymal cells. This process is repeated until no pellet is observed. The supernatant enriched in LSEC is centrifuged for 10 min at 350 g. The pellet is resuspended in PBS and centrifuged for 10 min at 350 g. The cells are resuspended in PBS and layered (3.3 ml) on the top of two-step percoll gradient (put the 5 ml of 50% percoll at the bottom and put the 6.6 ml of 25% percoll at the top). The gradients are centrifuged at 900 g for 20 min and the intermediate layer included LSEC is collected and cultured in the media (EGM™-2 MV—Microvascular Endothelial Cell Medium-2, CAMBREX, Charles City, Iowa). • ODN2088 and IRS 954 injection.

mice and rats = details: aspirin 200-600 mg/kg, dose range toxic to humans; cited from earlier work
THP1 cells = test: LPS stimulation of THP1 cells, real-time PCR for pro-IL-1β; format: cell-based, human; details: overnight with aspirin (1.5 mM, 0.15 mM), then LPS 10 μg/ml for 8 hours; P<0.05
NALP3 inflammasome = molecular target: T1, NALP3 inflammasome (Mus musculus, UniProt Q8R4B8); test: Uric acid (MSU crystal) peritonitis, model of NALP3 inflammasome activation; format: in vivo; details: low dose aspirin (60 mg/l) in drinking water for three days before MSU 3 mg/mouse ip; lavage after 3 hours; P<0.0001
T1 construct: endogenous in cells; host or cells: living C57BL/6 wild-type mice (peritoneal cavity, in vivo)
T1 sequence (Q8R4B8 whole entry): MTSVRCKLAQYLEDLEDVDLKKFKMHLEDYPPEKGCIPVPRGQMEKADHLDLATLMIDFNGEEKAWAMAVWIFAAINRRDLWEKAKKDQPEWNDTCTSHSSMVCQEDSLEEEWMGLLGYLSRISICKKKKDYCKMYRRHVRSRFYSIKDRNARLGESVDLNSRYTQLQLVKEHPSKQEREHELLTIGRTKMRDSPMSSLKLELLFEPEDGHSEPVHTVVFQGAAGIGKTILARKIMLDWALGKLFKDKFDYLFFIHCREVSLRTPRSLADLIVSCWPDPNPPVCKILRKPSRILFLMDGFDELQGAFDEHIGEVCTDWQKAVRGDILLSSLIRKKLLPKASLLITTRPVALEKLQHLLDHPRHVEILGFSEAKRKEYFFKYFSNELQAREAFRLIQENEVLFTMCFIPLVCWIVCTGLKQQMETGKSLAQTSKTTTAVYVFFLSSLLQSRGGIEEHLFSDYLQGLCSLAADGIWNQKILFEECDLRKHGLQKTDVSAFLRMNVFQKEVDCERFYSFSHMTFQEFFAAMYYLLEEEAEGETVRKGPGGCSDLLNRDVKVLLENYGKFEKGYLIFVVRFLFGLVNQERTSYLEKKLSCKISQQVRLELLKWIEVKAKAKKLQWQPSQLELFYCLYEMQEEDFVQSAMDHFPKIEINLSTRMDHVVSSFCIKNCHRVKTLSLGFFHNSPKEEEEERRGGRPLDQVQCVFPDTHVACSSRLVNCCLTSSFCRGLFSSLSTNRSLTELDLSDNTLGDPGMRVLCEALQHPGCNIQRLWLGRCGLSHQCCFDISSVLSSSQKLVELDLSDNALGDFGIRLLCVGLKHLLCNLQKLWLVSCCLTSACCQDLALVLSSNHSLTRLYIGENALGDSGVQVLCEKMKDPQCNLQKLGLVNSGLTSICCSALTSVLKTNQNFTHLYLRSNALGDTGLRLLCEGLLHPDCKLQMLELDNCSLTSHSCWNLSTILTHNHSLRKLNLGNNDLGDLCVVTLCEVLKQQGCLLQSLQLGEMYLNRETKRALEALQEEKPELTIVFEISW
Description: • Animals. C57BL/6 mice were purchased from commercial sources. NALP3 −/−, IL-18 −/− ASC −/−, IPAF −/− and TLR9−/− mice were backcrossed nine generations onto the C57BL/6 background. Caspase 1 −/− mice were backcrossed 5-6 generations onto the C57BL/6 background. These mice have been described previously(39, 40). IL-1β was neutralized in by using the anti-IL-1β antibody from clone B 122 (a gift of R. Schreiber, Washington University) at a dose of 0.2 mg/mouse iv twice a day for a total of 48 hours after giving APAP. Control mice received Armenian hamster isotype control antibody. For survival experiments animals were euthanized when they became moribund using criteria of lack of response to stimuli or lack of righting reflex. Animal protocols were approved by the Yale University animal care and use committee. [include references for IPAF−/− (M. Lara-Tejero et al. JEM 2006) and IL-18−/−. Need to add TLR9−/− and TLR3−/−] • Acetaminophen induced hepatotoxicity. APAP (Sigma, MO) solution was made fresh for each experiment in PBS at 20 mg/ml and heated in a water bath to 55° C. to dissolve. APAP was dosed at 500 mg/kg and injected I.P after 15 hrs of starvation. […] Neutrophil infiltration was evaluated by flow cytometry. […]

[1] = aspirin pre-treatment, 12 hours after APAP, p<0.03
[2] = aspirin treatment, after APAP, p<0.005

## COc1ccc(-n2nc(C(F)(F)F)cc2-c2ccc(Cl)cc2)cc1 [SC-560]
wild-type mice; SC-560 5 mg/kg gavage twice daily from 60 hours before to 48 hours after APAP, n=10 vs PBS n=10, P<0.97
  survival after APAP (protection against APAP toxicity): did not protect

## CC(=O)Oc1ccccc1C(=O)O [aspirin, acetylsalicylic acid]
wild-type mice; ASA in drinking water, after APAP, p<0.02
  serum IL-1β levels (ELISA): significant reduction
wild-type mice; aspirin 60 mg/l in drinking water for 3 days before APAP 500 mg/kg ip, n=17 vs control n=13, P<0.02
  survival after APAP: markedly improved survival
wild-type mice; aspirin given concordantly with APAP, 6 mg/kg by gavage immediately after APAP, control 22% ±19%, P<0.04
  survival: 43% ±11%
wild-type mice; aspirin in drinking water for three days before APAP, 12 hours after APAP
  liver histology (H&E), liver injury and hemorrhage: markedly improved; also recorded: significant reduction in APAP induced liver injury and hemorrhage
wild-type mice; [1]
  pro-IL-1β message, whole liver (real-time PCR): reduced to normal levels
  pro-IL-18 message, whole liver (real-time PCR): reduced to normal levels
wild-type mice; aspirin pre-treatment, 12 hrs after APAP, P<0.04
  serum ALT: significantly lower
wild-type mice; [2]
  IFN-γ expression, whole liver (real-time PCR): reduced
  TNF-α expression, whole liver (real-time PCR): reduced
Mice and rats
  liver injury from APAP: reduce liver injury
  survival from APAP: not improve survival
THP1 cells
  pro-IL-1β transcript up-regulation by LPS: reduced
NALP3 inflammasome
  neutrophil exudates (Gr-1 positive neutrophils in peritoneal lavage): eightfold reduction

## COC(=O)[C@H](c1ccccc1Cl)N1CCc2sccc2C1 [clopidogrel]
wild-type mice; clopidogrel 30 mg/kg gavage every 24 hrs from 48 hours before to 24 hours after APAP, n=15 vs PBS n=15, P<0.31
  survival after APAP (protection against APAP toxicity): did not protect
